Earlier results in US12414943B2 (ACASTI PHARMA U.S., INC., priority 2022, dated 2025).

What was measured:
[1] = man, oral
[2] = nimodipine-treated SAH patients

half-life equivalent to earlier elimination rates [1]: 1 to 2 h
concentration in the cerebrospinal fluid [2]: ≤ 0.0125 µg/mL
SMILES: COCCOC(=O)C1=C(C)NC(C)=C(C(=O)OC(C)C)C1c1cccc([N+](=O)[O-])c1 (centres unmarked) [Nimodipine, isopropyl2-methoxyethyl 1,4-dihydro-2,6-dimethyl-4-(m-nitrophenyl)-3,5-pyridinedicarboxylate]
